According to paper PMC8582824, “Targeting DDX3X Helicase Activity with BA103 Shows Promising Therapeutic Effects in Preclinical Glioblastoma Models” (Cancers, 2021):

Experiments:
U87 and U251 cells = test: Cell cycle analysis in GBM cells; format: cell-based; settings: after 72 h
Method: […] At the end point, at least 5 × 10^6 cells were harvested, washed with phosphate buffer saline (PBS), and fixed overnight with 70% ethanol. Then, ethanol was removed by centrifugation, and the cells were resuspended in PBS and stained with 50 μg/mL propidium iodide (PI) at 4 °C for 30 min in the dark. Stained cells were analyzed by a Tali image-based cytometer (Life Technologies, Carlsbad, CA, USA) counting 20 fields per sample, and exported fcs raw data were elaborated by Flowing software (v. 2.5.0, by Perttu Terho, University of Turku, Finland).
To better characterize the antiproliferative effect of BA103, we performed further biological evaluation using GBM cell lines. The expression of DDX3X was evaluated in U87 and U251 cell lines by Western blot analysis in comparison with HepG2 cells, resulting in basally detectable mainly in U87 cells (Figure 6A). […] Cell cycle experiments were performed in normal conditions (CTR) and in the presence of BA103 at 1 µM and 10 µM concentrations for 48 h and 72 h. […] Thus, also according to the importance of β-catenin signaling in GBM, we analyzed whether the expression of β-catenin in U87 and U251 cells could be associated with DDX3X activity. GBM cells were treated with BA103 for 48 h, and then, β-catenin expression was evaluated by Western blot analysis and immunofluorescence analysis (Figure 7A,B, respectively). […]

[1] = tested on: A549, MDA-MB-231, HCT-116, U2OS, RD18, DBTRG, U87, U251 and DAOY cancer cell lines; test: Cytotoxicity on additional cancer cell lines; format: cell-based; settings: 72 h
Method: For CellTiter 96® Aqueous One Solution Cell Proliferation Assay (MTS) (Promega, Madison, WI, USA), cells were seeded at 5 × 10^3 per well in 96-well plates in quadruplicate together a control with no cells to evaluate the background. After 24 h, the culture medium was removed, and fresh medium containing increasing concentrations of chemical compounds was added to cells. The fixed final concentrations were 0.1 μM, 1 μM, 10 μM, and 100 μM. DMSO was the vehicle used for dilution of the compounds, and its final concentration on cells was less than 0.2%. Medium-only containing wells were included as controls. […] After 3 h at 37 °C in a humidified, 5% CO2 atmosphere, the absorbance at 492 nm was recorded using an EZREAD400 (Biochrom, Cambridge, United Kingdom) plate reader. The average 490 nm absorbance from the “no cell” control wells was subtracted from all other values to yield background-corrected absorbance. Dose–response curves and CC50 values have been calculated by plotting the absorbance data as a function of inhibitor concentrations and fitting the data by least-squares nonlinear regression, according to the method of Marquardt–Levenberg, with the computer program GraphPad Prism 6.0.
Cells were incubated with a scalar concentration of DDX3X inhibitors, and after 72 h of treatment, cell viability was assessed by cytotoxicity assay. […]

CCCCc1cn(-c2ccc(NC(=O)Nc3ccccc3C(F)(F)F)cc2)nn1 [BA103, 1-(4-(4-Butyl-1H-1,2,3-triazol-1-yl)phenyl)-3-(2-(trifluoromethyl)phenyl)urea]
cell cycle distribution (U87 and U251 cells): significant accumulation of cells in the G0/G1 phase
CC50s against the additional cell lines [1]: micromolar CC50s
